Experimental data from patent EP3755703B1, “N-(PHENYL)-2-(PHENYL)PYRIMIDINE-4-CARBOXAMIDE DERIVATIVES AND RELATED COMPOUNDS AS HPK1 INHIBITORS FOR TREATING CANCER” (Incyte Corporation, priority 2018, dated 2019).

target: T1, HPK1 (Homo sapiens, UniProt Q92918); test: HPK1 Kinase Binding Assay; conditions: LanthaScreen tracer 222, one hour incubation at 25 °C
T1 construct: purchased SignalChem M23-11G
T1 sequence (Q92918 1-346 limits assumed): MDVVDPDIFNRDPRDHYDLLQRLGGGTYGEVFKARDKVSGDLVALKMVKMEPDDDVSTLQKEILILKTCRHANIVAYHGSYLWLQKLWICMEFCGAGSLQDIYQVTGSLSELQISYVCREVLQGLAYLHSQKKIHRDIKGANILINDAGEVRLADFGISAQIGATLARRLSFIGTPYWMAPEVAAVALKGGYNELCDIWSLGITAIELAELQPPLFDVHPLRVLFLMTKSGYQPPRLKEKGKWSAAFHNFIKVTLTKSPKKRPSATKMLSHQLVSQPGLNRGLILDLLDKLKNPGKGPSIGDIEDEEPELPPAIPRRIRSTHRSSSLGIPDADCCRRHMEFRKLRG

Ki, < 100 nM:
COc1cccc(F)c1-c1nccc(C(=O)Nc2ccccc2C2CCC(N)C2)n1 (centres unmarked) [Example 81, N-(2-(3-aminocyclopentyl)phenyl)-2-(2-fluoro-6-methoxyphenyl)pyrimidine-4-carboxamide]
COc1cccc(F)c1-c1nccc(C(=O)Nc2ccc(-c3c(C)nn(C)c3C)cc2[C@H]2CC[C@@H](N)CC2)n1 [Example 84, N-(2-((cis)-4-Aminocyclohexyl)-4-(1,3,5-trimethyl-1H-pyrazol-4-yl)phenyl)-2-(2-fluoro-6-methoxyphenyl)pyrimidine-4-carboxamide]
COc1cccc(F)c1-c1nccc(C(=O)Nc2ccc(S(C)(=O)=O)cc2N2C[C@@H](N)C[C@H]2CO)n1 [Example 85, N-(2-((2S,4S)-4-Amino-2-(hydroxymethyl)pyrrolidin-1-yl)-4-(methylsulfonyl)phenyl)-2-(2-fluoro-6-methoxyphenyl)pyrimidine-4-carboxamide]
COc1cccc(F)c1-c1nccc(C(=O)Nc2ccccc2N2C[C@@H](N)C[C@H]2CO)n1 [Example 86, N-(2-((2S,4S)-4-Amino-2-(hydroxymethyl)pyrrolidin-1-yl)phenyl)-2-(2-fluoro-6-methoxyphenyl)pyrimidine-4-carboxamide]
COc1cccc(F)c1-c1nccc(C(=O)Nc2cc(C)ccc2N2C[C@@H](N)C[C@H]2CO)n1 [Example 87, N-(2-((2S,4S)-4-Amino-2-(hydroxymethyl)pyrrolidin-1-yl)-5-methylphenyl)-2-(2-fluoro-6-methoxyphenyl)pyrimidine-4-carboxamide]
COc1cccc(F)c1-c1nccc(C(=O)Nc2cc(F)ccc2N2C[C@@H](N(C)C)C[C@H]2CO)n1 [Example 88, N-(2-((2S,4S)-4-(Dimethylamino)-2-(hydroxymethyl)pyrrolidin-1-yl)-5-fluorophenyl)-2-(2-fluoro-6-methoxyphenyl)pyrimidine-4-carboxamide]
COc1cccc(F)c1-c1nccc(C(=O)Nc2cc(F)ccc2N2C[C@@H](NC(C)C)C[C@H]2CO)n1 [Example 89, N-(5-Fluoro-2-((2S,4S)-2-(hydroxymethyl)-4-(isopropylamino)pyrrolidin-1-yl)phenyl)-2-(2-fluoro-6-methoxyphenyl)pyrimidine-4-carboxamide]
COc1cccc(F)c1-c1nccc(C(=O)Nc2ccc(C3CCOCC3)cc2N2C[C@@H](N)C[C@H]2CO)n1 [Example 90, N-(2-((2S,4S)-4-Amino-2-(hydroxymethyl)pyrrolidin-1-yl)-4-(tetrahydro-2H-pyran-4-yl)phenyl)-2-(2-fluoro-6-methoxyphenyl)pyrimidine-4-carboxamide]
COc1cccc(F)c1-c1nccc(C(=O)Nc2ccc(Cl)cc2N2C[C@@H](N)C[C@H]2CO)n1 [Example 91, N-(2-((2S,4S)-4-Amino-2-(hydroxymethyl)pyrrolidin-1-yl)-4-chlorophenyl)-2-(2-fluoro-6-methoxyphenyl)pyrimidine-4-carboxamide]
COc1cccc(F)c1-c1nccc(C(=O)Nc2ccc(F)cc2N2C[C@@H](N)C[C@H]2CO)n1 [Example 92, N-(2-((2S,4S)-4-Amino-2-(hydroxymethyl)pyrrolidin-1-yl)-4-fluorophenyl)-2-(2-fluoro-6-methoxyphenyl)pyrimidine-4-carboxamide]
N#Cc1cnc(N2CCCC2)cc1-c1ccc(NC(=O)c2ccnc(-c3c(F)cccc3F)n2)c(N2C[C@@H](N)C[C@H]2CO)c1 [Example 93, N-(2-((2S,4S)-4-Amino-2-(hydroxymethyl)pyrrolidin-1-yl)-4-(5-cyano-2-(pyrrolidin-1-yl)pyridin-4-yl)phenyl)-2-(2,6-difluorophenyl)pyrimidine-4-carboxamide]
N#CC1(c2ccc(NC(=O)c3ccnc(-c4c(F)cccc4F)n3)c(N3C[C@@H](N)C[C@H]3CO)c2)CC1 [Example 94, N-(2-((2S,4S)-4-Amino-2-(hydroxymethyl)pyrrolidin-1-yl)-4-(1-cyanocyclopropyl)phenyl)-2-(2,6-difluorophenyl)pyrimidine-4-carboxamide]
N#Cc1ccncc1-c1ccc(NC(=O)c2ccnc(-c3c(F)cccc3OC(F)F)n2)c(N2C[C@@H](N)C[C@H]2CO)c1 [Example 95, N-(2-((2S,4S)-4-Amino-2-(hydroxymethyl)pyrrolidin-1-yl)-4-(4-cyanopyridin-3-yl)phenyl)-2-(2-(difluoromethoxy)-6-fluorophenyl)pyrimidine-4-carboxamide]
N#Cc1ccncc1-c1ccc(NC(=O)c2ccnc(-c3c(F)cccc3C3CC3)n2)c(N2C[C@@H](N)C[C@H]2CO)c1 [Example 97, N-(2-((2S,4S)-4-Amino-2-(hydroxymethyl)pyrrolidin-1-yl)-4-(4-cyanopyridin-3-yl)phenyl)-2-(2-cyclopropyl-6-fluorophenyl)pyrimidine-4-carboxamide]
CCOc1cccc(F)c1-c1nccc(C(=O)Nc2ccc(-c3cnccc3C#N)cc2N2C[C@@H](N)C[C@H]2CO)n1 [Example 98, N-(2-((2S,4S)-4-Amino-2-(hydroxymethyl)pyrrolidin-1-yl)-4-(4-cyanopyridin-3-yl)phenyl)-2-(2-ethoxy-6-fluorophenyl)pyrimidine-4-carboxamide]
COc1cccc(F)c1-c1nccc(C(=O)Nc2ccc(-c3cnccc3C#N)cc2N2C[C@]3(CO)C[C@H]2CN3C)n1 [Example 99, N-(4-(4-Cyanopyridin-3-yl)-2-((1S,4S)-4-(hydroxymethyl)-5-methyl-2,5-diazabicyclo [2.2.1]heptan-2-yl)phenyl)-2-(2-fluoro-6-methoxyphenyl)pyrimidine-4-carboxamide]
COc1cccc(F)c1-c1nccc(C(=O)Nc2ccc(-c3cnccc3C#N)cc2N2CCO[C@H](CO)C2)n1 [Example 100, (S)-N-(4-(4-Cyanopyridin-3-yl)-2-(2-(hydroxymethyl)morpholino)phenyl)-2-(2-fluoro-6-methoxyphenyl)pyrimidine-4-carboxamide]
COc1cccc(F)c1-c1nccc(C(=O)Nc2ccc(-c3cnccc3C#N)cc2N2CCO[C@@H](CN(C)C)C2)n1 [Example 101, (S)-N-(4-(4-Cyanopyridin-3-yl)-2-(2-((dimethylamino)methyl)morpholino)phenyl)-2-(2-fluoro-6-methoxyphenyl)pyrimidine-4-carboxamide]
COc1cccc(F)c1-c1nccc(C(=O)Nc2ccc(-c3cnccc3C#N)cc2N2CCO[C@H](CC#N)C2)n1 [Example 102, (R)-N-(2-(2-(Cyanomethyl)morpholino)-4-(4-cyanopyridin-3-yl)phenyl)-2-(2-fluoro-6-methoxyphenyl)pyrimidine-4-carboxamide]
COc1cccc(F)c1-c1nccc(C(=O)Nc2ccc(-c3cnccc3C#N)cc2N2CCN3C(=O)OC[C@H]3C2)n1 [Example 103, (R)-N-(4-(4-Cyanopyridin-3-yl)-2-(3-oxotetrahydro-3H-oxazolo[3,4-a]pyrazin-7(1H)-yl)phenyl)-2-(2-fluoro-6-methoxyphenyl)pyrimidine-4-carboxamide]
